From patent US20250144128A1, “CANCER TREATMENT” (Nucana plc, priority 2022, published 2025)

Assays:
[1] = test system: adenosine deaminase (ADA); conditions: inactive metabolite 3′-deoxyinosine; Tsai et al. 2010; cited from earlier work
[2] = test system: sPD-L1, A375 melanoma or A549 lung cancer cell lines; test: sPD-L1 in media supernatant in the cell line studies (sandwich ELISA), cell line not specified; assay type: cell-based; conditions: NUC-7738 10 uM vs DMSO
Method: For sPDL1 analysis, a similar process was undertaken. Cells were grown in Corning® 100 mm TC-treated Culture Dish with DMEM, high glucose, GlutaMAX™ Supplement (ThermoFisher Cat #10566016) supplemented with 10% FBS and 1% Penicillin-Streptomycin (ThermoFisher Cat #15070063), with approximately 2×10^6 cells.
(§1) A375 melanoma cell lines and A549 lung cancer cell lines were treated with solvent-control DMSO or NUC-7738 (10 uM) for 72 hours, after which media supernatants were collected for either soluble PD-L1 analysis or EV isolation. In addition, adherent cells were collected for RNA and protein isolation.
Patient plasma samples were centrifuged at 3000×g for 15 minutes to remove cellular debris. […]
For quantitative measurement of soluble PD-L1 in patient and in-vitro samples Quantikine® ELISA Human/Cynomolgus Monkey PD-L1/B7-H1 Immunoassay (R&D Systems Cat. #DB7H10) was used as per manufacturers recommendation. […]
In brief, the protocol included the preparation of the standard curve from the Human/Cynomolgus Monkey PD-L1/B7-H1 protein standard ranging from […]. […] The wells were read using a microplate reader set to 450 nm and 540 nm for wavelength correction to determine the optical density.
Analysis of the results included subtracting the 540 nm readings from 450 nm reading and subtracting blank, diluent only, sample readings. […]

exosomal PD-L1 [3] = test: exosomal PD-L1 in plasma of patients treated with NUC-7738 (capillary-based immune probing, PD-L1/CD81); assay type: in vivo, human; conditions: plasma exosomes; for PD-L1/CD81 values: 24 h Post C1
Method: Patients were treated with NUC-7738 on days 1 and 8 of a 14-day cycle. Patient plasma samples were collected pre-dose, 24 hr after NUC-7738 dosage and the 24 hours post Cycle 2 (that is the second occasion at which patients received treatment).
Patient plasma samples were centrifuged at 3000×g for 15 minutes to remove cellular debris. Then, the supernatant was aliquoted in 250 μL measures and stored in−80° C. freezers. For exosomal isolation ExoQuick® ULTRA EV Isolation Kit for Serum and Plasma (System Biosciences Cat #EQULTRA-20A-1) according to manufacturer's protocol. In brief, 250 μL of plasma samples free of cellular debris was used and 67 μL ExoQuick Solution was added, followed by a 30 minute incubation period at 4° C. After that, the plasma sample and ExoQuick Solution mixture were centrifuged at 3000×g for 10 minutes. Then, carefully without disturbing the pellet, all of the supernatant was aspirated off, making sure no residual traces remained. Next, the pellet was resuspended in Buffer B provided, followed by the addition of Buffer A. The samples was homogenised in the buffer by carefully pipetting up and down until no clumps of the pellet were seen. The resin purification columns were conditioned by removing the storage buffer and washing it with Buffer B. The samples were added to the conditioned purification column and centrifuged at 1000×g for 30 seconds. The eluted samples were quantified for protein concentration using Qubit™ Protein and Protein Broad Range (BR) Assay Kits (Thermofisher Cat #A50668). Samples were then aliquoted according to the required amounts for the downstream applications and stored −80° C.
Analysis of PD-L1 expression in exosomes isolated from plasma samples was carried out using automated western blotting JESS system (BioTechne, ProteinSimples). The 12-230 kDa Separation Module of 25 capillaries kit (ProteinSimple, Cat #SM-W004) was used per manufacture protocol. Briefly, samples were prepared at the appropriate concentration using the kit master-mix and sample dilution buffer containing DT, samples were then denatured for 5 minutes at 95° C. All samples, primary antibodies and secondary antibodies were loaded into the plate provided. Anti-CD81 antibody [M38] (Abcam, Cat #ab79559) diluted at 1:100 and PD-L1 (E1L3N®) XP® Rabbit mAb (Cell Signalling, Cat #13684) diluted at 1:50 were used. Secondary antibodies used were from the anti-mouse chemiluminescence (ProteinSimple, Cat #DM002) and anti-rabbit near-infrared (NIR) (ProteinSimple, Cat #DM007) detection module, they were used at recommended dilution. The prepared plates and capillaries were then loaded onto the JESS, and sample run at the defaults settings. The expression was determined by the area under the curve using Compass Software v 6.1 (ProteinSimple).

[4] = test system: A375 melanoma or A549 lung cancer cell lines; test: mRNA decrease in the cell line studies (RT-qPCR), cell line not specified; assay type: cell-based; conditions: NUC-7738 10 uM vs DMSO
Method: as §1
To determine RNA expression of soluble transcript, cells were lysed and RNA isolated using the RNAeasy Kit (Qiagen, Cat #74136). This was then followed by RNA reverse transcription into cDNA using QuantiNova Reverse Transcription Kit (Qiagen, Cat #205413). Primers for each gene were designed using PrimerQuest™ (Integrated DNA Technologies) and ordered at 100 uM concentrations from IDT. The soluble PD-L1 transcript primer was designed to create an amplicon of about 100 bp size crossing the exon 4 and intron 4 junction.
RT-qPCR was carried out using the qPCRBIO SyGreen MasterMix kit (PCRBiossystems Cat #PB20.14-50) and the Rotor qene Q qPCR machine (Qiagen). Ct values were analysed using the Rotor qene Q Software. Fold change were calculated using the AACt values.

exosomal PD-L1 [5] = test: exosomal PD-L1 in plasma of patients treated with NUC-7738 (capillary-based immune probing, PD-L1/CD81); assay type: in vivo, human; conditions: for PD-L1/CD81 values: plasma exosomes, Pre C2 (15 days after initial cycle)
[6] = test system: ExoPD-L1, A375 melanoma or A549 lung cancer cell lines; test: ExoPD-L1 protein in exosomes from the cell line studies; assay type: cell-based; conditions: NUC-7738 10 uM vs DMSO
Method: For Extracellular Vesicle (EV, exosome) preparation, cells were cultured in T175 Nunc™ EasYFlask™ Cell Culture Flasks (ThermoFisher Cat #159910), approximately 50×10^6 cells. Cells were grown in DMEM, high glucose, GlutaMAX™ Supplement (ThermoFisher Cat #10566016) supplemented with 5% exosome free FBS and 1% Penicillin-Streptomycin (ThermoFisher Cat #15070063).
as §1
Isolation of exosomes from in-vitro samples involved growing cells in 5 separate T175 Nunc™ EasYFlask™ Cell Culture Flasks (ThermoFisher Cat #159910) which approximated to 50×10^6 cells. Cells were grown in DMEM, high glucose, GlutaMAX™ Supplement (ThermoFisher Cat #10566016) in addition, this was supplemented with exosome free FBS. […]
Analysis of PD-L1 expression in exosomes isolated from plasma samples was carried out using automated western blotting JESS system (BioTechne, ProteinSimples). […] The expression was determined by the area under the curve using Compass Software v 6.1 (ProteinSimple).

[7] = patient 001-002, Pre C1 (untreated) 0.044
[8] = patient 001-019, Pre C1 (untreated) 0.039
[9] = patient 002-002, Pre C1 (untreated) 0.035
[10] = patient 003-008, Pre C1 (untreated) 0.045

SMILES | metabolism after administration, in vivo [1] | time dependent decrease of sPD-L1 expression in the media supernatant [2] | PD-L1/CD81 values (exosomal PD-L1 [3]; [7]) | time within which the reduction of the PD-L1/CD81 ratio is seen (exosomal PD-L1 [3]; patient 001-019) [h] | PD-L1/CD81 values (exosomal PD-L1 [3]; [8]) | PD-L1/CD81 values (exosomal PD-L1 [3]; [9]) | PD-L1/CD81 values (exosomal PD-L1 [3]; [10]) | decrease of mRNA [4] | PD-L1/CD81 values (exosomal PD-L1 [5]; [7]) | PD-L1/CD81 values (exosomal PD-L1 [5]; [8]) | PD-L1/CD81 values (exosomal PD-L1 [5]; [9]) | PD-L1/CD81 values (exosomal PD-L1 [5]; [10]) | reductions in Exo-PD-L1 compared to pre-treatment levels (exosomal PD-L1 [5]; preliminary studies, serum from 4 patients treated with NUC-7738) [%] | reduction of ExoPD-L1 protein [6] [%]
Nc1ncnc2c1ncn2[C@@H]1O[C@H](CO)C[C@H]1O [3′-dA, 3′-deoxyadenosine] | quickly deaminated by adenosine deaminase (ADA), and rapidly metabolized to an inactive metabolite |  |  |  |  |  |  |  |  |  |  |  |  | 
C[C@H](NP(=O)(OC[C@@H]1CC(O)[C@H](n2cnc3c(N)ncnc32)O1)Oc1ccccc1)C(=O)OCc1ccccc1 (stereo partly drawn) [NUC-7738, 3′-deoxyadenosine-5′-O-[phenyl(benzyloxy-L-alaninyl)] phosphate] |  | up to 3 fold | 0.047 | ≤ 24 | 0.02 | 0.043 | 0.041 | up to 40% | 0.025 | 0.049 | 0.023 | 0.029 | ≤ 50 | 50
